Test results as given in paper PMC12605013, “SAG1.3-derived Frizzled-targeting small-molecule compounds” (The Journal of Biological Chemistry, 2025).

Legend:
FZD5–DEP–Clamp sensor = experiment: FZD5–DEP–Clamp BRET sensor in stably expressing HEK293A cells; format: cell-based, human
Protocol: To generate the stable FZD5–DEP–Clamp cell line, HEK293A cells were seeded at a density of 500,000 cells/well in a 6-well plate. On the next day, the adherent cells were transfected with 2 μg of FZD5–DEP–Clamp (TK) plasmid using PEI as the transfection reagent. After 2 days of transfection, cells were detached and transferred to a 75 cm^2 flask. Stably transfected cells were selected using complete medium (DMEM + 10% fetal calf serum + 1% penicillin–streptomycin) supplemented with 2000 μg/ml G-418 sulfate (Gibco; catalog no.: 10131027) for 3 weeks. After obtaining stable growth, cell culture of the stable cell line was continued with 500 μg/ml G-418.
For kinetic experiments with the FZD5–DEP–Clamp sensor, BRET values were first baseline-corrected for every well separately by subtracting the average of the first three reads prior ligand addition. Afterward, the average values for vehicle-containing wells were subtracted for every timepoint to get access to actual ligand-induced changes in BRET ratio (ΔBRET values).
Figure S4. […] (A) Shown is the BRET time-course recorded upon addition of 30 µM compound 11 or vehicle (DMSO). […] The cell surface pool of transiently-transfected HiBiT-FZD5 (B) and HiBiT-FZD6 (C) was assessed by addition of recombinant LgBiT in combination with detection of NanoBiT luminescence. […]

Nluc-FZD5 = molecular target: T1, Nluc-FZD5 (Homo sapiens, UniProt Q13467); experiment: BRET-based BODIPY-cyclopamine competition binding at Nluc-FZD5; conditions: BODIPY-cyclopamine 200 nM; ΔFZD1-10 HEK293T cells; read-out: pIC50 (11) mean ± SEM, Nluc-FZD5 (converted)
T1 construct: expressed in transfected cells; host or cells: ΔFZD1–10 HEK293T cells
Protocol: After 24 h, cells were washed once with Hanks' balanced salt solution (HBSS), followed by the addition of 80 μl of HBSS. Next, 10 μl of the competitive ligand, that is, the tested SAG1.3 derivative (either in different concentrations for the concentration–response curves or at a final concentration of 10 μM for the first screens) and 10 μl of the fluorescent tracer BODIPY–cyclopamine (final concentration: 300 nM for the first screens, 200 nM for the concentration–response experiments) were added. All serial dilutions were prepared in HBSS. The cells were incubated for 90 min at 37 °C without additional CO2, after which 10 μl of luciferase substrate diluted in HBSS (furimazine; Promega, N1572, final dilution: 1:1000 for first screening) and coelenterazine h (Biosynth; final concentration: 5 μM for concentration–response experiments) were added to the cells. Following a 10 min incubation period in the dark, the measurement was started on a BMG Labtech ClarioStar or TECAN Spark multimode microplate reader, prewarmed to 37 °C. Nluc bioluminescence was detected between 460 and 490 nm (ClarioStar) or 460 and 500 nm (TECAN Spark). The emission of the fluorescent tracer was detected between 520 and 550 nm (ClarioStar) or between 520 and 560 nm (TECAN Spark). […]

HiBiT-FZD6 = molecular target: T2, HiBiT-FZD6 (Homo sapiens, UniProt O60353); experiment: NanoBiT cell surface expression assay, HiBiT-FZD6; format: cell-based; conditions: 10 μM, overnight exposure
T2 construct: expressed in transfected cells; host or cells: HEK293A cells
T2 sequence (O60353 19-706): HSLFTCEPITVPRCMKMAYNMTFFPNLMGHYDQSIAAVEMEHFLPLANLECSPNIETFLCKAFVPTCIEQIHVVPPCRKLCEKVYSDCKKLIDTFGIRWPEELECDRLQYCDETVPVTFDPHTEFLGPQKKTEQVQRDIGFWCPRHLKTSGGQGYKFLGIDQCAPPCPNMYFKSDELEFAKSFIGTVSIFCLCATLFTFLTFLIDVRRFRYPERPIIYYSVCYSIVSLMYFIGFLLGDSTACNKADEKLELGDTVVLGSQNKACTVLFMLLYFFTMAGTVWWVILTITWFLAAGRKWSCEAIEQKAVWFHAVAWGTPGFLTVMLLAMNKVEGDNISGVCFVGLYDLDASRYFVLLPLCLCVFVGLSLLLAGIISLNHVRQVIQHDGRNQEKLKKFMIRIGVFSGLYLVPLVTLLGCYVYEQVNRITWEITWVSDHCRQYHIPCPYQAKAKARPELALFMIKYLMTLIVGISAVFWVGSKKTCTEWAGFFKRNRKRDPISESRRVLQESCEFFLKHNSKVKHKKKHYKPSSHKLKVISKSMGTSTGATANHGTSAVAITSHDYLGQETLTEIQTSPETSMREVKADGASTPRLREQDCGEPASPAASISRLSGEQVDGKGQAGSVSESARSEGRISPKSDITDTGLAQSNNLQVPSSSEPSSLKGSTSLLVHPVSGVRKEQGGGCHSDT
Protocol: Subsequently, 10 μl of either compound 11 or 26 (DD436001) was added at a final concentration of 10 μM. DMSO was added separately as a control. One day after compound or DMSO addition, cells were washed once with HBSS, and 90 μl of HBSS was added to the wells. To measure cell surface expression, a 1:20 dilution of furimazine live cell substrate and 1:20 LgBiT mix (final dilution = 1:200) were prepared in HBSS and 10 μl was added. The plate was incubated for 30 min to allow for HiBiT–LgBiT complementation, and then luminescence was measured on a TECAN Spark multimode microplate reader between 460 and 500 nm (integration time: 200 ms).
Figure S4. BRET time-course of compound 11 at the FZD5-DEP-Clamp in agonist mode and HiBiT-FZD5/6 surface expression upon compound exposure. (A) Shown is the BRET time-course recorded upon addition of 30 µM compound 11 or vehicle (DMSO). Experiments were performed in HEK293A cells stably expressing the FZD5-DEP-Clamp sensor. […] The timepoint of ligand addition is indicated by a black arrow. (B, C) Impact of compound 11 on FZD cell surface expression. The cell surface pool of transiently-transfected HiBiT-FZD5 (B) and HiBiT-FZD6 (C) was assessed by addition of recombinant LgBiT in combination with detection of NanoBiT luminescence. […]

T1 sequence (Q13467 27-585): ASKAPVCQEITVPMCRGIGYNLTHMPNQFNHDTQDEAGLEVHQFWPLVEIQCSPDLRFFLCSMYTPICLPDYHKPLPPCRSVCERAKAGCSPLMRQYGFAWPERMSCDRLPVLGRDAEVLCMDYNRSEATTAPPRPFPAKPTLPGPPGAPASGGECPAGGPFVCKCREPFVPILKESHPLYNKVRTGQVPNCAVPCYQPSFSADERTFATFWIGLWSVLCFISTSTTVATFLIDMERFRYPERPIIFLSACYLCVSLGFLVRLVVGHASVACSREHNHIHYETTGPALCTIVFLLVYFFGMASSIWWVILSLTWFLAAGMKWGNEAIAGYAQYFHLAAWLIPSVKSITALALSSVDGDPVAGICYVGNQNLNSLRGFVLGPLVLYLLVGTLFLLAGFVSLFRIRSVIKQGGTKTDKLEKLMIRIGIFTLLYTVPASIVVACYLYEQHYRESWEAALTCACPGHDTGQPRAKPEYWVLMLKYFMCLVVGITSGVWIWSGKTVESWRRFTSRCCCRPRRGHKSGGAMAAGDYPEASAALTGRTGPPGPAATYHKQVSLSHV

CC(=O)Nc1cccc(C(=O)NC2CCC(N(Cc3cccc(-c4ccncc4)c3)C(=O)c3sc4ccccc4c3Cl)CC2)c1 (stereo not shown) [compound 11, N-((1r,4r)-4-(3-Acetamidobenzamido)cyclohexyl)-3-chloro-N-(3-(pyridin-4-yl)benzyl)benzo[b]thiophene-2-carboxamide]
Effect on WNT-induced FZD5–DEP–Clamp response (FZD5–DEP–Clamp sensor; 500 ng/ml high-purity WNT-3A with 30 μM compound): able to interfere with the WNT-induced effects
BRET response of FZD5–DEP–Clamp, compound alone (FZD5–DEP–Clamp sensor; 30 µM compound, agonist mode): did not elicit a robust change in BRET response
IC50 (Nluc-FZD5): 759 nM
Effect on surface levels of HiBiT-FZD6 (HiBiT-FZD6): had no effect
